The results in this text go back to ChEMBL document CHEMBL1123196, “p-Dimethoxy-substituted trans-octahydrobenzo[f]- and -[g]quinolines: synthesis and assessment of dopaminergic agonist effects” (1986).

The source made the active and inactive calls. No cut-off for these calls is given here.

Assay [1] deals with D(2) dopamine receptor (Homo sapiens) (UniProt P14416). Nature of the assay: Antagonistic activity at a dose of 3.08 umol/kg was evaluated against Dopamine receptor D2 in the […] cardioaccelerator nerve preparation; Inactive. The format is functional.
For assay [2] the target is unchanged. The assay can be described thus: Agonistic activity at a dose of 3.08 umol/kg was evaluated against Dopamine receptor D2 in the […] cardioaccelerator nerve preparation; Inactive. In kind it is functional. Particulars: Felis catus.
The target is the same in assay [3]. Nature of the assay: Agonistic activity at a dose of 12.3 umol/kg was evaluated in rats with unilateral lesion of the nigrostriatal pathway (post junctional dopamine receptors); Inactive. The format is functional. Particulars: Rattus norvegicus, target entry is the homologue from another species.
The target of assay [4] is T1, Dopamine receptor (Rattus norvegicus) (UniProt P25115+P19020+P30729+P18901+P61169). The assay can be described thus: Antagonistic activity at a dose of 12.3 umol/kg was evaluated in rats with unilateral lesion of the nigrostriatal pathway (post junctional dopamine receptors); Inactive. The format is functional.
Assay [5] deals with D(2) dopamine receptor (Homo sapiens) (UniProt P14416). The assay can be described thus: Potency was evaluated for the activity against Dopamine receptor D2 of cat cardioaccelerator nerve preparation; Active. Particulars: Felis catus; target entry is the homologue from another species.
Assay [6] is filed under the species Felis catus. Nature of the assay: Inhibitory dose was evaluated for the inhibition of the chronotropic response to nerve stimulation using the cat cardioaccelerator nerve preparation. The format is functional. The following applies: read-out: ID50 (the source's name).
Assay [7] is filed under the species Felis catus. Nature of the assay: Inhibitory dose was evaluated against cat cardioaccelerator nerve preparation. In kind it is functional. Particulars: read-out: ID50 (the source's name).
Assay [8] addresses D(2) dopamine receptor (Homo sapiens) (UniProt P14416). The assay can be described thus: Antagonistic activity at a dose of 3.4 umol/kg was evaluated against Dopamine receptor D2 in the […] cardioaccelerator nerve preparation; Inactive. The format is functional. The following applies: Felis catus.
Assay [9] shares this target. The assay can be described thus: Agonistic activity at a dose of 13.3 umol/kg was evaluated in rats with unilateral lesion of the nigrostriatal pathway (post junctional dopamine receptors); Inactive. The format is functional. The following applies: Rattus norvegicus, target entry is the homologue from another species.
Assay [10] shares this target. Nature of the assay: Agonistic activity at a dose of 3.4 umol/kg was evaluated against Dopamine receptor D2 in the […] cardioaccelerator nerve preparation; Inactive. The format is functional. Particulars: Felis catus.
In assay [11] the target is T1, Dopamine receptor (Rattus norvegicus). The assay can be described thus: Antagonistic activity at a dose of 13.3 umol/kg was evaluated in rats with unilateral lesion of the nigrostriatal pathway (post junctional dopamine receptors); Inactive. The format is functional.
Assay [12] relates to Felis catus. The assay can be described thus: Compound at a dose of 100 ug/kg was evaluated for the reversal of the inhibition of nerve stimulation using the cat cardioaccelerator nerve preparation; Reversed inhibition. In kind it is functional, organism-based.
Assay [13] concerns Felis catus. The assay can be described thus: Compound at a dose of 50 ug/kg was evaluated for the reversal of the inhibition of nerve stimulation using the cat cardioaccelerator nerve preparation; Reversed inhibition. In kind it is functional, organism-based.
The species named for assay [14] is Felis catus. The assay can be described thus: Inhibitory dose was evaluated on the cat cardioaccelerator nerve preparation. In kind it is functional. Particulars: read-out: ID50 (the source's name).

Sequence of D(2) dopamine receptor (Homo sapiens) (P14416 whole entry): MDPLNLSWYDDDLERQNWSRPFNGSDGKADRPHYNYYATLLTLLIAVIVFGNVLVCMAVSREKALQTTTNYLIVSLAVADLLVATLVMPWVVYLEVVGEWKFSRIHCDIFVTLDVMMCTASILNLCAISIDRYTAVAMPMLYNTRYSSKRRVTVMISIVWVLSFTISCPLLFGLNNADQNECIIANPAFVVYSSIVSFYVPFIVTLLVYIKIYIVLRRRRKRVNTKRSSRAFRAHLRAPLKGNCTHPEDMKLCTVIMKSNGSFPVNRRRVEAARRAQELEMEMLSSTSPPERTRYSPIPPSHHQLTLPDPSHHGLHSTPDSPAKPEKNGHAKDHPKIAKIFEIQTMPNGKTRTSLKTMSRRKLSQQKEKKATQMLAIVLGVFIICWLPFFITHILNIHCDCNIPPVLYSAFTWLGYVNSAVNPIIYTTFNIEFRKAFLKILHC

Take `CCCN1CCC[C@@H]2c3c(OC)ccc(OC)c3CC[C@@H]21`: the outcome in [1], in [2], in assay [3] and in assay [4] was inactive.

With `CCCN(CCC)C1CCc2c(O)cccc2C1` (stereo not given), in [5], the outcome was Active.

As for `CCCN1CCC[C@H]2c3c(OC)ccc(OC)c3CC[C@@H]21`, the ED50 in the assay filed under Felis catus [6] was 1.17 µmol/kg.

Regarding `CCCN1CCC[C@@H]2Cc3c(OC)ccc(OC)c3C[C@H]21`, in the assay listed under Felis catus [7], the ED50 came to 0.032 µmol/kg.

With `CCCN(CCC)C1Cc2cccc(O)c2C1` (stereo not given), in assay [5], the outcome was Active.

Regarding `CCCN(CCC)CCc1cc(OC)ccc1OC`, the outcome in assay [8], in assay [9], in [10] and in [11] was inactive.

Consider `O=C(CCCN1CCC(O)(c2ccc(Cl)cc2)CC1)c1ccc(F)cc1`, for which the result with Felis catus [12] and in the assay with Felis catus [13] was Active.

`CN1CCc2cccc3c2[C@H]1Cc1ccc(O)c(O)c1-3` [APOMORPHINE]: the ED50 in the assay listed under Felis catus [14] amounted to 0.022 µmol/kg.
